This assay has as its target T1, DmSLC22A (CG7442) (Drosophila melanogaster, UniProt Q7JRD5).
T1 sequence (Q7JRD5 1-568): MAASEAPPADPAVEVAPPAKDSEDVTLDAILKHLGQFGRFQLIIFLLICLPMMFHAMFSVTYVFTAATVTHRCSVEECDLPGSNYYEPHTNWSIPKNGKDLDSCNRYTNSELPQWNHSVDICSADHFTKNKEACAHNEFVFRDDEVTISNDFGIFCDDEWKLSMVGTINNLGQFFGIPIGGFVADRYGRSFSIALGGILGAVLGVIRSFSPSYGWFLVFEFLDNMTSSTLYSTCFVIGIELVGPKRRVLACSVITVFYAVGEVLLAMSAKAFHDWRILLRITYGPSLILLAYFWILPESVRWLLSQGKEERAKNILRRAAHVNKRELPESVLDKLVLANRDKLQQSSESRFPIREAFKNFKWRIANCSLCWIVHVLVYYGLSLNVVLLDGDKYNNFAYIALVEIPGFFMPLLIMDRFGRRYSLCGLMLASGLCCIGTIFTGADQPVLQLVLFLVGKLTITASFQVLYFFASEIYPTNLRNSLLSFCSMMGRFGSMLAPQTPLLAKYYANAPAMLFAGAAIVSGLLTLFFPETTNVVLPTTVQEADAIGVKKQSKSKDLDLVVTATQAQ
It is filed as cell-based. To be noted: labelled compound; doxycycline-induced vs un-induced cells.

Turning to `C[n+]1ccc(-c2ccccc2)cc1` [MPP], the “apparent Km” value is “Table S2 lists the apparent Km and Vmax values for each substrate”.

In the case of `CC[N+](CC)(CC)CC` [TEA], the “apparent Km” value is “Table S2 lists the apparent Km and Vmax values for each substrate”.

Regarding `CC(=O)OCC[N+](C)(C)C` [acetylcholine], the “apparent Km” value was “choline and acetylcholine are transported with low μM Km values”.

For the compound `C[N+](C)(C)CC(=O)[O-]` [betaine], the “apparent Km” value is “Table S2 lists the apparent Km and Vmax values for each substrate”.

Take `C[N+](C)(C)CCO` [choline]: the “apparent Km” value was “choline and acetylcholine are transported with low μM Km values”.

`NCCc1c[nH]cn1` [histamine]: the “apparent Km” value was “Table S2 lists the apparent Km and Vmax values for each substrate”.

Regarding `NCCc1c[nH]c2ccc(O)cc12` [serotonin], the “apparent Km” value was “Table S2 lists the apparent Km and Vmax values for each substrate”.
